Legend:
[1] = test system: calcineurin in the presence of Cyclophilin A; test: Calcineurin inhibition assay (phosphatase activity in the presence of Cyclophilin A); assay type: biochemical
Method: Calcineurin inhibition assay
Calcineurin inhibition assays were conducted by Eurofins Integrated Discovery UK Ltd (EID) to determine the effect of compounds on the activity of calcineurin in the presence of Cyclophilin A. Assays were performed in duplicate, with IC50 values calculated from mean […]
Compounds were diluted with and without immunophilin (CypA) in a 96-well plate. After addition of calcineurin/calmodulin complex, the plate was incubated at 30 °C for 10 minutes.
The addition of the RII phosphopeptide substrate initiated the reaction, and the plate was […]
The reaction was stopped by the addition of Malachite green reagent. The plate was incubated at room temperature to allow colour development (5 – 20 mins). After sufficient colour has developed, the absorbance is read at 620 nm. Blank subtracted absorbance readings are plotted against compound concentration to determine IC50 values or % inhibition at the top concentration.

in vitro = conditions: human
Method: Metabolic stability assay
Hepatic microsomal stability assays were conducted by Charles River Laboratories. Assays were performed in duplicate.
The stability of the test compound (1 µM) was measured following incubation at 37 °C with […] (0.5 mg protein/mL) in the presence of the cofactor, NADPH.
Incubates were prepared in duplicate, with aliquots removed at 0, 5, 10, 20 and 40 minutes and reactions terminated, and the compound was extracted by the addition of solvent. The disappearance of the parent compound was be monitored by LC-MS/MS and the half-life determined over the time-course of incubation. The half-life value was used to calculate the in vitro intrinsic clearance expressed as µL/min/mg protein.
Table S11. Metabolic Stability Data
Half- Half- Half- Clint Clint Mean Clint
Compound Cofactor life life Life (uL/min/mg (uL/min/mg (uL/min/mg Species (min) (min) (min) protn) n=1 protn) n=2 protn) (results)

T cell proliferation = conditions: Fig. 1a; cited from earlier work
Excerpt: Fig. 1 Evolution of a strategy for one-carbon alkene homologation. a, The effect of homologues on biological activity: side chain length compared with immunosuppressive activity in a family of natural products. b, Homologation processes for common functional groups. c, Generally adopted sequence for alkene homologation. d, Design plan for a catalytic one-carbon alkene homologation process. TEXT PRINTED IN THE PICTURE: (a) R = CH3 FK-523 (FR-900523): T cell proliferation IC50 (nM): 2.72 | (a) R = CH2CH3 FK-520 (ascomycin): T cell proliferation IC50 (nM): 0.69 | (a) R = CH2CH2CH3: T cell prolife ...

Human Cyclophilin A = Human Cyclophilin A (Homo sapiens, UniProt P62937); test: PPIase TR-FRET competitive binding assay
Sequence of Human Cyclophilin A (P62937 whole entry): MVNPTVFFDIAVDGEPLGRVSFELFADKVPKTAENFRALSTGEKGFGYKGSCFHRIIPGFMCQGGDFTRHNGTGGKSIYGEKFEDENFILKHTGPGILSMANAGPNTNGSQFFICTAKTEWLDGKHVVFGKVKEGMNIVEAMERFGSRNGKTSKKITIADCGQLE
Method: PPIase TR-FRET competitive binding assay
Cyclophilin A assays were conducted by Eurofins Integrated Discovery UK Ltd (EID) to determine the inhibitory activity of the analogues against the Human Cyclophilin A in a TR-FRET Competitive Binding assay. Assays were performed in duplicate, with Kd values calculated from mean averages. […]
binding to the CypA enzyme: the CypA enzyme, tagged with a polyhistidine sequence, forms a complex with an anti-6xHis antibody labelled with a fluorescent donor, F(d), and the enzyme […]
Compounds are diluted from DMSO stocks to 50-fold the final concentration and then in assay buffer to 2-fold the final assay plate concentration. An equal volume of compound is added to the master mix in the assay plate containing the enzyme/antibody/ligand complex, with a final concentration of detergent of 0.01%. This is incubated for 30 mins at room temperature and the plate read at 2 wavelengths (A and B) to detect emission from F(d) and F(a), respectively. The ratio B/A is calculated, blank subtracted and either expressed as a percentage of the ‘no inhibitor’ control or the blank subtracted values are plotted against the inhibitor concentration in Log10 Molar and fitted using one site Ki nonlinear regression to determine the Kd. Where possible, compound Kds are determined from duplicate data points. Each assay plate is set up with ‘no enzyme’ blanks and ‘no inhibitor’ controls, which are used to determine the Z’ value for each plate.

Jurkat cells = test: IL-2 release assay, Jurkat cells stimulated with anti-CD3/anti-CD28; assay type: cell-based, human; conditions: for IL-2 levels, Mean: mean of three replicates normalized to the vehicle control
Method: Interleukin-2 (IL-2) release assays were conducted by Eurofins Pan Labs to determine ability for the analogues to inhibit IL-2 secretion from Jurkat cells following stimulation with anti-CD3 and anti-CD28 for a period of 24 hours. Data shown are means of three replicates normalized to the vehicle control
1) Cryopreserved Jurkat cells were thawed and cultured according to established protocols for four days at 37°C, 5% CO2 prior to assay.
2) Jurkat cells were harvested and seeded into 96-well plates at a density of 2x10^5 cells/well with […]
penicillin/streptomycin, and 2 mM L-glutamine).
3) Cells were incubated at 37°C, 5% CO2 for 1 hour prior to the addition of test agents.
4) The test agents were serially diluted in DMSO to 1000X assay concentrations, then further diluted to 20X assay concentrations in culture medium. The reference inhibitor Cyclosporin A (Sigma Aldrich catalog #C1832) was diluted to 1000X assay concentrations in DMSO before dilution to 20X assay concentration in culture medium.
5) The test agents, reference inhibitor, and diluted vehicle controls were added to the cells in volumes of 10 μL in triplicate and incubated for 1 hour at 37°C, 5% CO2. […]
concentrations in culture medium. The corresponding isotype controls were diluted to 5X assay concentrations in culture medium.
7) Diluted anti-CD3/anti-CD28 was added to test agent and positive control wells in volumes of 40 μL according to the plate map. Isotype controls were added to the isotype control wells.
Culture medium was added to vehicle and unstimulated control wells. […]
assay volumes of 200 μL and control concentrations of 50 ng/mL cyclosporin A (reference inhibitor), 0.1% DMSO (vehicle), 15 μg/mL anti-CD3, and 15 μg/mL anti-CD28.
8) Cells were incubated for 24 hours at 37°C, 5% CO2.
9) At the end of the incubation period, plates were centrifuged at 200g for 10 minutes. Cell culture supernatants were collected and stored at -80°C until needed for analysis.
Data Analysis and Analyte Limits of Detection
IL-2 cytokine levels in cell culture supernatants were determined using Luminex methodology per the manufacturer’s protocol using the Human Cytokine/Chemokine/Growth Factor Panel A Kit from Millipore Sigma (catalog #HCYTA-60K) with standard ranges and limits of detection in Table S9. Levels of each cytokine were interpolated from standard curves using non-linear regression analysis in Belysa Software (Millipore Sigma). The raw data in the form of median fluorescence unit was interpolated into test concentrations (pg/mL). The interpolated data were then normalized to the vehicle control
Table S9. Analyte limit of detection
Analyte Lowest standard (pg/mL) Highest standard (pg/mL) Sensitivity (pg/mL) […]
Reported mean values (pg/mL) are from three biological replicates normalized to the vehicle […]
Fig. S5. IL-2 release by Jurkat cells following stimulation with anti-CD3/anti-CD28 and treatment with the indicated test agent for 24 hours. Error bars indicate the standard error of the […]

[2] = Reversed-phase HPLC retention as measure of lipophilicity; conditions: reversed-phase C18, Fig. S4-b; corroborates calculated lipophilicity
[3] = in vitro calcineurin phosphatase activity assay

Row | Structure (SMILES) | Clint (uL/min/mg protn) n=1 (in vitro) | Clint (uL/min/mg protn) n=2 (in vitro) | Half-life (min) n=1 (in vitro) | Half-life (min) n=2 (in vitro) | Mean Clint (uL/min/mg protn) (in vitro) | IC50 (T cell proliferation) | Kd (Human Cyclophilin A) | further results
1 | CC[C@@H]1NC(=O)[C@H]([C@H](O)[C@H](C)CC/C=C\F)N(C)C(=O)[C@H](C(C)C)N(C)C(=O)[C@H](CC(C)C)N(C)C(=O)[C@H](CC(C)C)N(C)C(=O)[C@@H](C)NC(=O)[C@H](C)NC(=O)[C@H](CC(C)C)N(C)C(=O)[C@H](C(C)C)NC(=O)[C@H](CC(C)C)N(C)C(=O)CN(C)C1=O [compound 24] | 48 uL/min/mg protn | 53 uL/min/mg protn | 29 min | 26 min | 51 uL/min/mg protn | – | – | decrease in phosphatase activity compared with cyclosporine A [1, 3]: 10 fold
2 | CC[C@@H]1/C=C(\C)C[C@H](C)C[C@H](OC)[C@H]2O[C@@](O)(C(=O)C(=O)N3CCCC[C@H]3C(=O)O[C@H](/C(C)=C/[C@@H]3CC[C@@H](O)[C@H](OC)C3)[C@H](C)[C@@H](O)CC1=O)[C@H](C)C[C@@H]2OC [FK-520, ascomycin] | – | – | – | – | – | 0.69 nM | – | –
3 | C=CC[C@@H]1/C=C(\C)C[C@H](C)C[C@H](OC)[C@H]2O[C@@](O)(C(=O)C(=O)N3CCCC[C@H]3C(=O)O[C@H](/C(C)=C/[C@@H]3CC[C@@H](O)[C@H](OC)C3)[C@H](C)[C@@H](O)CC1=O)[C@H](C)C[C@@H]2OC [Tacrolimus, tacrolimus] | – | – | – | – | – | 0.18 nM | – | –
4 | C=CCCC[C@@H](C)[C@@H](O)[C@H]1C(=O)N[C@@H](CC)C(=O)N(C)CC(=O)N(C)[C@@H](CC(C)C)C(=O)N[C@@H](C(C)C)C(=O)N(C)[C@@H](CC(C)C)C(=O)N[C@@H](C)C(=O)N[C@H](C)C(=O)N(C)[C@@H](CC(C)C)C(=O)N(C)[C@@H](CC(C)C)C(=O)N(C)[C@@H](C(C)C)C(=O)N1C [compound 26, homoisocyclosporine A] | 69 uL/min/mg protn | 65 uL/min/mg protn | – | – | 67 uL/min/mg protn | – | 10.2 nM | calcineurin inhibition compared with cyclosporine A (in words) [1, 3]: restored calcineurin inhibition to levels comparable with those of cyclosporine A
5 | COc1ccc2c(c1)[C@]13CCCC[C@@H]1[C@H](C2)N(C)CC3 [Dextromethorphan, reference compound] | 29 | 29 | 49 min | 47 min | 29 | – | – | Half-Life (min) (Mean) (in vitro): 48 min
6 | CO[C@H]1C[C@@H](C)C/C(C)=C\[C@@H](C)C(=O)C[C@H](O)[C@@H](C)[C@@H](/C(C)=C/[C@@H]2CC[C@@H](O)[C@H](OC)C2)OC(=O)[C@@H]2CCCCN2C(=O)C(=O)[C@]2(O)O[C@H]1[C@@H](OC)C[C@H]2C [FK-523] | – | – | – | – | – | 2.72 nM | – | –
7 | Cc1ncc2n1-c1ccc(Cl)cc1C(c1ccccc1F)=NC2 [Midazolam, reference compound] | 277 | 277 | 5 min | 5 min | 277 | – | – | Half-Life (min) (Mean) (in vitro): 5 min
8 | [2H]C([2H])([2H])/C=C/CC[C@@H](C)[C@@H](O)[C@H]1C(=O)N[C@@H](CC)C(=O)N(C)CC(=O)N(C)[C@@H](CC(C)C)C(=O)N[C@@H](C(C)C)C(=O)N(C)[C@@H](CC(C)C)C(=O)N[C@@H](C)C(=O)N[C@H](C)C(=O)N(C)[C@@H](CC(C)C)C(=O)N(C)[C@@H](CC(C)C)C(=O)N(C)[C@@H](C(C)C)C(=O)N1C [compound 23] | 44 uL/min/mg protn | 45 uL/min/mg protn | 32 min | 31 min | 44 uL/min/mg protn | – | 45.9 nM | half-life at 1 µM (in vitro; both, liver microsomes): 31 min
9 | CCCC1C=C(C)CC(C)CC(OC)C2OC(O)(C(=O)C(=O)N3CCCCC3C(=O)OC(C(C)=CC3CCC(O)C(OC)C3)C(C)C(O)CC1=O)C(C)CC2OC (stereo not shown) [R = CH2CH2CH3] | – | – | – | – | – | 0.93 nM | – | –
10 | C/C=C/CCC[C@@H](C)[C@@H](O)[C@H]1C(=O)N[C@@H](CC)C(=O)N(C)CC(=O)N(C)[C@@H](CC(C)C)C(=O)N[C@@H](C(C)C)C(=O)N(C)[C@@H](CC(C)C)C(=O)N[C@@H](C)C(=O)N[C@H](C)C(=O)N(C)[C@@H](CC(C)C)C(=O)N(C)[C@@H](CC(C)C)C(=O)N(C)[C@@H](C(C)C)C(=O)N1C [compound 22, E-bishomo Cyclosporine-A] | 81 uL/min/mg protn | 78 uL/min/mg protn | 17 min | – | 79 uL/min/mg protn | – | 23.6 nM | calcineurin inhibition compared with cyclosporine A (in words) [1, 3]: retained comparable potency to cyclosporine A; IC50 ([1]; with CypA, calcineurin/calmodulin, RII phosphopeptide substrate, 30 °C 45 min, Malachite green A620, duplicate, IC50 from mean averages): 158 nM; suppression of IL-2 secretion (in words) (Jurkat cells; at high concentrations (≥1 µM), Jurkat T cells): effectively suppressed IL-2 secretion; IL-2 levels, Mean (Jurkat cells; test agent 0.032 µM): 7.0 pg/mL; IL-2 levels, Mean (Jurkat cells; test agent 0.10 µM): 1.9 pg/mL; IL-2 levels, Mean (Jurkat cells; test agent 0.32 µM): 1.1 pg/mL; IL-2 levels, Mean (Jurkat cells; test agent 1.0 µM): 0.9 pg/mL; IL-2 levels, Mean (Jurkat cells; test agent 3.2 µM): 0.5 pg/mL; IL-2 levels, Mean (Jurkat cells; test agent 10 µM): 0.7 pg/mL; increase of HPLC retention time upon each homologation event [2]: ~ 2.5 minutes

From paper PMC12221989, “One-carbon homologation of alkenes” (Nature, 2025)
